How the values were obtained:
[1] = test system: TGF-β secreted by HOF cells; assay: TGF-β ELISA in Human Oral Fibroblast cells; assay type: cell-based; settings: HOF treated with conditioned media from Oral Keratinocytes
Method: Cell Culture. Normal human oral keratinocytes (NOKSI) and fibroblast (HOF) cells were maintained in Dulbecco […] Eagle's medium (Sigma-Aldrich, St. Louis, MO, USA) supplemented with 10% fetal bovine serum (Atlas Bio-logicals, Fort Collins, CO, USA) and 100 units/mL penicillin and 100 μg/mL streptomycin (LifeTechnologies, Carlsbad, CA, USA). Cells were grown in incubator at 37° C. in a humidified chamber with 5% CO2.
Enzyme linked immunosorbent assay (ELISA). ELISA was conducted with a mouse TNF-α ELISA Kit (PeproTech, USA) and TGF-β Emax ImmunoAssay System (Promega USA) to detect the TNF-α and TGF-β respectively. After normalization of the total cells or tissue protein lysates, 20 μg protein of each sample was used for the detection of TNF-α or TGF-β. ELISA was performed according to the manufacturers' instructions. For TNF-α, 100 ng/100 μl of capture antibody was added to each well of 96 well assay plate and incubated for overnight at room temperature. Blocking buffer of 200 μl per well were added to each well and incubated for 1 hour at room temperature. […] Optical absorbing values were read at 405 and 450 nm and corrected by 650 nm. […] TMB One Solution was added for 15 minutes and the reaction were stopped using 100 μl of 1N hydrochloric acid and the absorbance at 450 nm were recorded on a plate reader. Data were analyzed using excel software. […]

phospho-p65 = assay: Mice study #2: phospho-p65 immunoblotting of gingival samples; assay type: in vivo, C57BL/6 mice; settings: pattern as for Myd88 (disease higher than control and treatment)
Method: Western blot analysis. Cells were seeded in 60 mm plates with a density of 5×10^5 cells per plate and washed briefly with Dulbecco's phosphate-buffered saline (Gibco, Waltham, MA, USA). Whole cell lysates were prepared using RIPA lysis buffer containing protease inhibitor cocktail (Sigma-Aldrich). Total protein concentration was determined using the BCA reagent (Pierce, Waltham, MA, USA). 20 μg of total protein were resolved on sodium dodecyl sulfate-polyacrylamide gel electrophoresis and transferred to polyvinylidenedifluoride membrane and immunoblotted. The blots were incubated for 1 h in 1% bovine serum albumin (BSA) (Sigma-Aldrich) to block the non-specific bindings followed by over-night incubation in primary antibodies (MyD88 and pP65 from Cell Signaling Technology, and human LITAF ThermoFisher Sigma) at 4° C. on shaker. Next day, blots were washed for three times (10 min each) in Tris-buffered saline containing 1% Tween20 (TBST) followed by incubation with secondary antibody (Goat anti-rabbit IgG HRP) with 1:10,000 dilution for 1 h. […] The band intensities were quantified using software ImageJ (NIH, USA) and relative protein levels were normalized by β-actin (Cell Signaling). […] The band intensities were measured by the software ImageJ (NIH, USA), and relative protein levels were normalized by β-actin.

In the case of `Nc1nc2ncc(CNc3ccc(C(=O)N[C@@H](CCC(=O)O)C(=O)O)cc3)nc2c(=O)[nH]1` [folic acid], the “amount of TGF-β secreted by HOF cells” value [1] is reported as “reduce TGF-β expression” and the “phospho p65 expression, pattern across groups” value (phospho-p65) is reported as “a similar pattern”.

— US20260000496A1, “MATERIALS AND METHODS FOR DRUG-INDUCED GINGIVAL OVERGROWTH” (Optimed Technology, Inc., priority 2019, published 2026)
